From PubChem BioAssay (NCI)
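Following 48 hours of exposure in 96-well plates, responses at five concentrations were used to interpolate endpoints linearly. TGI is the concentration that stops growth completely.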

These compounds were tested on SK-OV-3 ovarian (assay: growth of human tumour cells (NCI), 48 h).

| Structure (SMILES) | TGI [µM] |
| --- | --- |
| Cc1ccc2c(c1)C(=S)N1CSCC1c1nncn1-2 (stereo not given) | > 100 |
| CC(C)NC(=O)OCc1c(COC(=O)NC(C)C)c(-c2cc[n+](COC(=O)C3CC3)cc2)n2c1CCC2 | > 100 |
| COC(=O)C1=C(C(=O)OC)N(c2ccc(OC)cc2[N+](=O)[O-])C(c2ccc(C)cc2)=CC1c1ccc(OC)cc1OC (stereo not given) | 73.3 |
| COc1cccc(C2c3cc4c(cc3OC(N3CCCCC3)C2C)OCO4)c1O (stereo not given) | > 79.1 |
| CN(CCSCCN(C)C(=O)OC(C)(C)C)C(=O)OC(C)(C)C | > 100 |
| CC1=C(C)CC2C(=O)N(c3cc(C(C)(C)C)ccc3C(C)(C)C)C(=O)C2C1 (stereo not given) | > 100 |
| O=c1[nH]nnc2c1sc1ncccc12 | > 100 |
| Cc1ccc(C2SCC(=O)N2c2ccc(-n3c(-c4ccccc4)nc4ccccc4c3=O)cc2)cc1 (stereo not given) | 40.5 |
| O=[N+]([O-])c1ccc(CN(CCCl)OCCCl)cc1 | > 100 |
| CC1=NN(c2nc(N)nc(/C(C#N)=C\c3ccc([N+](=O)[O-])s3)n2)C(C)(C)C1 | 49.3 |
| O=c1[nH]cnc2c1cnn2Cc1cn(CCCCO)nn1 | > 100 |
| CN1CCc2c([nH]c3ccccc23)C1 | > 100 |
| CC(C)(C)OC(=O)N(CCCCN(CCCNC(=O)C(F)(F)F)C(=O)OC(C)(C)C)CCCNC(=O)C(F)(F)F | > 100 |
| CCOC1(OCC)C2C=CC1C(COS(=O)(=O)c1ccc(C)cc1)C2COS(=O)(=O)c1ccc(C)cc1 (stereo not given) | > 100 |
| Cc1[nH]c(=O)nc2nc3ccc(Cl)cc3c(NCCNCCO)c12 | 23.9 |

The compounds below were run on DU-145 prostate (assay: growth of human tumour cells (NCI), 48 h).

| Structure (SMILES) | TGI [µM] |
| --- | --- |
| O=[N+]([O-])C[C@@]12O[C@]3(O)C4C5CC(C6C5C3C61)C42 (stereo not given in full) | > 100 |
| C=C(Cl)C(=CCl)CCC(Br)C(C)(C)Cl (mixture of isomers) | > 10 |
| CN1C(=O)c2ccccc2OC12C=Cc1c(ccc3ccccc13)O2 (stereo not given) | > 45 |
| CCCC(=O)NC(NC1CCCCC1)(C(=O)OCC)C(F)(F)F (stereo not given) | > 100 |
| Cc1ccc2c(c1)C(=S)N1CSCC1c1nncn1-2 (stereo not given) | > 100 |
| CC(C)NC(=O)OCc1c(COC(=O)NC(C)C)c(-c2cc[n+](COC(=O)C3CC3)cc2)n2c1CCC2 | > 100 |
| COC(=O)C1=C(C(=O)OC)N(c2ccc(OC)cc2[N+](=O)[O-])C(c2ccc(C)cc2)=CC1c1ccc(OC)cc1OC (stereo not given) | > 100 |
| COc1cccc(C2c3cc4c(cc3OC(N3CCCCC3)C2C)OCO4)c1O (stereo not given) | 96.9 |
| CN(CCSCCN(C)C(=O)OC(C)(C)C)C(=O)OC(C)(C)C | > 100 |
| CC1=C(C)CC2C(=O)N(c3cc(C(C)(C)C)ccc3C(C)(C)C)C(=O)C2C1 (stereo not given) | > 100 |
| O=c1[nH]nnc2c1sc1ncccc12 | > 100 |
| Cc1ccc(C2SCC(=O)N2c2ccc(-n3c(-c4ccccc4)nc4ccccc4c3=O)cc2)cc1 (stereo not given) | > 100 |
| O=[N+]([O-])c1ccc(CN(CCCl)OCCCl)cc1 | > 100 |
| CC1=NN(c2nc(N)nc(/C(C#N)=C\c3ccc([N+](=O)[O-])s3)n2)C(C)(C)C1 | 0.597 |
| O=c1[nH]cnc2c1cnn2Cc1cn(CCCCO)nn1 | > 100 |
| CN1CCc2c([nH]c3ccccc23)C1 | > 100 |
| CC(C)(C)OC(=O)N(CCCCN(CCCNC(=O)C(F)(F)F)C(=O)OC(C)(C)C)CCCNC(=O)C(F)(F)F | > 100 |
| CCOC1(OCC)C2C=CC1C(COS(=O)(=O)c1ccc(C)cc1)C2COS(=O)(=O)c1ccc(C)cc1 (stereo not given) | > 100 |
| Cc1[nH]c(=O)nc2nc3ccc(Cl)cc3c(NCCNCCO)c12 | 29.4 |

Each compound was assayed on HCT-116 colon (assay: growth of human tumour cells (NCI), 48 h).

| Structure (SMILES) | TGI [µM] |
| --- | --- |
| O=[N+]([O-])C[C@@]12O[C@]3(O)C4C5CC(C6C5C3C61)C42 (stereo not given in full) | > 100 |
| C=C(Cl)C(=CCl)CCC(Br)C(C)(C)Cl (mixture of isomers) | > 10 |
| CN1C(=O)c2ccccc2OC12C=Cc1c(ccc3ccccc13)O2 (stereo not given) | 14.2 |
| CCCC(=O)NC(NC1CCCCC1)(C(=O)OCC)C(F)(F)F (stereo not given) | > 100 |
| Cc1ccc2c(c1)C(=S)N1CSCC1c1nncn1-2 (stereo not given) | > 100 |
| CC(C)NC(=O)OCc1c(COC(=O)NC(C)C)c(-c2cc[n+](COC(=O)C3CC3)cc2)n2c1CCC2 | > 100 |
| COC(=O)C1=C(C(=O)OC)N(c2ccc(OC)cc2[N+](=O)[O-])C(c2ccc(C)cc2)=CC1c1ccc(OC)cc1OC (stereo not given) | > 100 |
| COc1cccc(C2c3cc4c(cc3OC(N3CCCCC3)C2C)OCO4)c1O (stereo not given) | 19.9 |
| CN(CCSCCN(C)C(=O)OC(C)(C)C)C(=O)OC(C)(C)C | > 100 |
| CC1=C(C)CC2C(=O)N(c3cc(C(C)(C)C)ccc3C(C)(C)C)C(=O)C2C1 (stereo not given) | > 100 |
| O=c1[nH]nnc2c1sc1ncccc12 | > 100 |
